In US20240139149A1, “THERAPEUTIC USES OF UROLITHIN DERIVATIVES” (Vandria SA, priority 2022, published 2024):
“Also recorded” adds a separate entry of the source.

Experiments:
[1] = system: AOM-induced colon tumors; assay: AOM-induced colorectal tumorigenesis, UA-containing diet; type: in vivo, mouse; settings: FVB mice
Source text: Urolithin A containing diet (2.28 g/kg) or AIN− 93G control food (Brogaarden) were given ad libitum once introduced for experimental purpose at the indicated time. Animal experiments were approved by the Regierungsprasidium Darmstadt under animal application numbers F123/1009; F123/1062 and F123/2008.
Colorectal tumors were induced by 6 consecutive weekly injections of AOM on mice fed with food containing 2.28 g/kg Urolithin A (UA diet) or with control food. The diet was introduced one-week prior the first AOM injection and maintained until the end of the experiment at ˜20-24 weeks. The colons were collected for subsequent histological analysis as described below. For subcutaneous colorectal cancers, APTK organoids were mechanistically disrupted, incubated with Accutase to generate a single cell suspension and reconstituted in PBS 20% Matrigel (Corning) for subcutaneous transplantation. Tumor sizes were measured at the indicated time after transplantation and tumor volume quantified as ½(width2×length). Urolithin A or control food regiment were initiated either one week before tumor challenge or 11 days after tumor development. Therapeutic diets were maintained throughout the experiment unless indicated otherwise. […] CD8-depleting antibodies (InvivoMab anti-mouse CD8; Hoelzel; BE0061) or isotype controls (InvivoMab rat IgG2b isotyp; Hoelzel; BE0090) were applied every three days, starting at five days after tumor initiation. To study combination efficacy with immunotherapy, mice were injected i.p. with 100 μl nVivoMAb anti-mouse PD-1 (Hoelzel; BE0146) and InVivoMab mouse IgG2b isotype control (Hoelzel; BE0086) every 2 days, starting three days after tumor injection.
For histological analysis of colon tissue, colons were paraffin embedded using the “swiss roll” technique and serially sectioned at […]. […] AOM tumor lesion size and incidence were quantified using Aperio ImageScope software.

[2] = system: aged mice injected with Aβ1-42; assay: Mouse model of Alzheimer's disease, intrahippocampal injection of Aβ1-42 oligomers; type: in vivo
Description: A total of 18-month-old C57BL6 male mice were included in the study (n=12 per group). The animals were housed up to 4 to a cage, in clear polycarbonate cages with a stainless steel mesh lid and floor in a day/night inversed cycle (12 h/12 h). Drinking water and food were supplied ad libitum to each cage. The animals were kept for a period of acclimation of a minimum of 5 days before any handling.
All mice were subjected to surgery and were injected with 2 μL of vehicle or of A 1-42 solution. Aβ1-42 peptide (Bachem) was dissolved in the vehicle, at an initial concentration of 100 μM (the mother preparation was characterized by automatic WB, and precisely contained 15% of AβO). This solution was gently agitated for 3 days at 37° C. in the dark before any use until the day of the surgery.
The Aβ1-42 preparation was bilaterally injected into the […] of the CA1 area of the hippocampus (at three different depths). A total of 2 μL/side of A 1-42 preparation (100 μM), or vehicle, were bilaterally injected with a Hamilton syringe in the CA1 area of the hippocampus (0.2 μL/min with an Elite Nanomite syringe pump).
Vehicle (0.5% carboxy methyl cellulose (CMC)) or 33 at 1 mg/kg/d was administrated daily by gavage (per os: p.o). The treatment started 1 day after the surgery (D+1) and lasted until the end of the study (D+27). The study was stopped 4 weeks after the surgery (on D28).
The week before the surgery, a training session was performed, for habituation (5 minutes) to the maze. Fourteen (14) days after the surgery, mice were tested for short-term memory deficit in the Y-maze test.
The test was based on two trials: • Trial 1. Mice were allowed to freely explore two arms of the Y-maze during 5 min. The third arm remained closed during the trial. At the end of the 5 min, the animal was placed for 3 min in an empty cage. The Y-maze was cleaned with acetic acid to neutralize odors. • Trial 2. Mice were then allowed to freely explore the three arms of the Y-maze during 5 min. This trial corresponds to the test session.
Both trials were recorded by a video camera using Ethovision system (Noldus). The following items were automatically recorded: a) total distance in the Y-maze and b) the time spent in each arm.
At the end of the experiment (on day 28), 5 mice per group were deeply anesthetized and plasma samples were collected. Mice were then perfused with cold PBS (3 minutes), and cold paraformaldehyde (PFA) 4% in PBS (for 3 minutes).
Six (n=6) brain sections per animal were processed and incubated for 24 hours at 4° C. or 2 hours at room temperature with selected antibodies (Abs). The following antibodies were used: • NeuN: Rabbit polyclonal antibody anti-NeuN (1/1000). • Iba1: Rabbit polyclonal antibody anti-Iba1 (1/500). • Tau phospho Ser212/Thr214 (AT100): Mouse monoclonal antibody anti-AT100 (1/200).
Images were acquired with a confocal microscope LSM 900 with Zen software at 20× magnification (Zeiss) using the same acquisition parameters (automatic acquisition). […] The following read-outs were measured: • Number of NeuN positive pyramidal cells in the CA1 area. • Activation of Iba1-positive microglial cells in the CA1 area. • Activation of AT100 positive neurons in the CA1 area.
Results were analyzed using GraphPad Prism software version 8.0.2. *p<0.05 after a One-way or Two-way ANOVA followed by Fisher's test was considered significant.

[3] = AOM weekly for six weeks, oral UA diet 2.28 g/kg vs control diet

Row | SMILES | tumor incidence [1, 3] | tumor size [1, 3] | infiltration of CD3+ T cells into the colonic mucosa ([1]; AOM, oral UA diet 2.28 g/kg) | short-term spatial memory (time in new arm, Y-maze) ([2]; 1 mg/kg daily oral, 14 days post-surgery) | AT100 (hyperphosphorylated Tau) in neurons ([2]; 1 mg/kg daily, day 1 to day 28) | activation of Iba1(+) microglial cells ([2]; 1 mg/kg daily, day 1 to day 28) | survival of NeuN(+) neurons in CA1 ([2]; 1 mg/kg daily, day 1 to day 28) | total distance traveled in Y-maze ([2]; 1 mg/kg/d p.o., 14 days post-surgery)
1 | O=c1oc2cc(O)ccc2c2ccc(O)cc12 [UA, Urolithin A] | significant decrease | significant decrease | increased infiltration |  |  |  |  | 
2 | O=c1oc2cc(O)ccc2c2ccc(OC3CCOCC3)cc12 [compound 33, 3-hydroxy-8-((tetrahydro-2H-pyran-4-yl)oxy)-6H-benzo[c]chromen-6-one] |  |  |  | able to prevent; also recorded: beneficial effects | decrease | significantly decrease | significantly improved | not different between groups
